Positions count from the first letter of the chain named. Names may count otherwise. “Also recorded” adds a separate entry of the source.
B1: Q18M: lacI repressor point mutant in the DNA binding domain, residue 18 Q to M (protein, listed as Escherichia coli)
chain: MKPVTLYDVAEYAGVSYMTVSRVVNQASHVSAKTREKVEAAMAELNYIPNRVAQQLAGKQSLLIGVATSSLALHAPSQIVAAIKSRADQLGASVVVSMVERSGVEACKAAVHNLLAQRVSGLIINYPLDDQDAIAVEAACTNVPALFLDVSDQTPINSIIFSHEDGTRLGVEHLVALGHQQIALLAGPLSSVSARLRLAGWHKYLTRNQIQPIAEREGDWSAMSGFQQTMQMLNEGIVPTAMLVANDQMALGAMRAITESGLRVGADISVVGYDDTEDSSCYIPPLTTIKQDFRLLGQTSVDRLLQLSQGQAVKGNQLLPVSLVKRKTTLAPNTQTASPRALADSLMQLARQVSRLESGQ
B2: F161W: lacI repressor effector pocket point mutant, residue 161 F to W (protein, UniProt P03023 1-360, looked up, variant F161W)
Lactose operon repressor: B1 chain with M18Q, F161W

What was measured:
cells = conditions: CD-1, mouse
Experimental: Bioavailability of IPTG: Three CD-1 adult mice were gavaged with 25 μL of 1M IPTG per 10 g of body weight twice a day for 3 days. Animals were then sacrificed and major organs were harvested, mechanically homogenized, and steady state concentrations of IPTG in liver, kidney, skeletal muscle, and retina were determined using a beta-galacosidase assay^24. […] IPTG concentrations were tracked in various mouse tissues after a single 3-day IPTG gavage induction cycle. Data points represent mean+/−SD, n=3.

ARPE-19 cells = assay: Luciferase regulation assay in transfected ARPE-19 cells with and without IPTG; format: cell-based, human
Experimental: All gene regulation assays start by transiently transfecting the cell line of choice with the appropriate plasmid. Media is supplemented with effector of varying concentration in wells (IPTG for lacI repressor experiments and doxycycline for tet repressor experiments) and specific experimental conditions are typically grown side by side in triplicate. Experimental measurement times varied depending upon cell confluence but occurred 24 to 72 hours after transfection.
Cells were lysed with Reporter Lysis Buffer (Promega) and 5 μL of whole cell lysate was added to 45 μL of luciferase assay buffer (Promega) containing luciferin in 384 well optical bottom plates (Corning). Plates were immediately loaded into the Tecan M1000 and luciferase signal was measured for each well over time. Peak luciferase signal values were used for quantification. […]
The plasmid containing the cassette controlling luciferase was transfected into human retinal pigment epithelium (ARPE-19) cells and grown with and without 2.5 mM IPTG. We measured approximately 20% basal expression with a 3.5-fold induction (p<0.05) (FIG. 1D). […]
Point mutations introduced in the repressor can decrease leakiness, increase dynamic range, or change/alter the affinity for effector molecules in bacterial cells. […] These point mutations were introduced into the repressor and induction measured in ARPE-19 cells. […]

Row | Molecule | gavage concentration of IPTG, fold less than concentrations toxic to cells (cells) [fold] | steady state tissue concentrations of IPTG, fold less than concentrations toxic to cells (cells; 3 days) [fold] | leakiness, dynamic range and maximal expression phenotype (in words) (ARPE-19 cells)
1 | CC(C)SC1OC(CO)C(O)C(O)C1O [IPTG, isopropyl β-D-1-thiogalactopyranoside] | 50 | 500 | 
2 | B1 |  |  | deceased leakiness at the expense of maximal expression; also recorded: decreased leakiness as well as the commensurate decreased dynamic range
3 | B2 |  |  | decreased leakiness and increased dynamic range

— patent US10392622B2, “Compositions and methods for self-regulated inducible gene expression” (The Trustees of the University of Pennsylvania, priority 2014, dated 2019)
